For 31 compounds, Ki results are on record in US8178690B2, “Compounds and methods for inhibiting the interaction of BCL proteins with binding partners” (Infinity Pharmaceuticals, Inc., priority 2006, dated 2012).

One assay concerns the target Bcl-xL (Homo sapiens, UniProt Q07817). Description: Bcl-xL binding affinity analysis (fluorescence polarization binding assay). To be noted: read-out: BcI-XI (Ki, Bcl-xL binding affinity). The text has this: (§1) Bcl-2 and Bcl-xL binding may be determined using a variety of known methods. One such assay is a sensitive and quantitative in vitro binding assay using fluorescence polarization (FP) described by Wang, J.-L.; Zhang, Z-J.; Choksi, S.; Sjam. S.; Lu, Z.; Croce, C. M.; Alnemri, E. S.; Komgold, R.; Huang, Z. Cell permeable Bcl-2 binding peptides: a chemical approach to apoptosis induction in tumor cells. Cancer Res. 2000, 60, 1498-1502).
(§2) Bcl-2 and Bcl-xL binding affinity analysis data is presented below for various compounds of the invention.

The target of a further assay is Bcl-2 (Homo sapiens, UniProt P10415). In words: Bcl-2 binding affinity analysis (fluorescence polarization binding assay). The following applies: read-out: BcI2 (Ki, Bcl-2 binding affinity).
Sequence of Bcl-2 (P10415 whole entry): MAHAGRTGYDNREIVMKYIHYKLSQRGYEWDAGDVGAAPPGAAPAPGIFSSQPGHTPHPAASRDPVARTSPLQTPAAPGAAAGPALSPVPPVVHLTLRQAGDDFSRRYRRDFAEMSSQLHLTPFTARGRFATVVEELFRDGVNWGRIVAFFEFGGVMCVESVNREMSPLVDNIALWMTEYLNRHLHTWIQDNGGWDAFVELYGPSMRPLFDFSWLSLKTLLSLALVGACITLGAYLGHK
Description: as §1, §2

Sequence of Bcl-xL (Q07817 whole entry): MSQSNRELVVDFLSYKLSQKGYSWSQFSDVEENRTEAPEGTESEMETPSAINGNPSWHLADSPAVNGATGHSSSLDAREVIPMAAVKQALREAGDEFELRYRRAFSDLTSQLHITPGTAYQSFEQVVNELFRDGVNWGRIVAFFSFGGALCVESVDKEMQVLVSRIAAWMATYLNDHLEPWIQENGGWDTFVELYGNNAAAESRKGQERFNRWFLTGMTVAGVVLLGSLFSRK

`CNC[C@H](Cc1ccccc1)NC(=O)c1cc(-c2cccc(CN3O[C@@H](CO)[C@@H]([C@H](C)O)[C@H]3C(=O)N[C@H]3C[C@H]4C[C@@H]([C@@H]3C)C4(C)C)c2OC)cc(N(C)C)c1` [Compound 165]: the inhibition constant (Ki) at Bcl-xL is below 1000 nM; at Bcl-2 it was below 1 nM.

For `COc1c(CN2O[C@@H](CO)[C@@H]([C@H](C)O)[C@H]2C(=O)N[C@H]2C[C@H]3C[C@@H]([C@@H]2C)C3(C)C)cccc1-c1cc(C(=O)N[C@@H](CN(C)C)CS(=O)(=O)C(C)(C)C)cc(N(C)C)c1` [Compound 170], the inhibition constant (Ki) is 1000 to 5000 nM on Bcl-xL and 1 to 5 nM on Bcl-2.

In the case of `CCOc1c(CN2O[C@@H](CO)[C@@H]([C@H](C)O)[C@H]2C(=O)N[C@H]2C[C@H]3C[C@@H]([C@@H]2C)C3(C)C)cccc1-c1cc(C(=O)N[C@H](CN(C)C)CS(C)(=O)=O)cc(N(C)C)c1` [Compound 176], the inhibition constant Ki lay in the range of 1000 to 5000 nM at Bcl-xL and 1 to 5 nM at Bcl-2.

Turning to `CCOc1c(CN2O[C@@H](CO)[C@@H]([C@H](C)O)[C@H]2C(=O)N[C@H]2C[C@H]3C[C@@H]([C@@H]2C)C3(C)C)cccc1-c1cc(C(=O)N[C@@H](Cc2ccccc2)CN2CCCC2)cc(N(C)C)c1` [Compound 182], the inhibition constant (Ki) at Bcl-xL was below 1000 nM; on Bcl-2, below 1 nM.

Turning to `COc1c(CN2O[C@@H](CO)[C@@H]([C@H](C)O)[C@H]2C(=O)N[C@H]2C[C@H]3CC([C@@H]2C)C3(C)C)ccc(Cl)c1-c1cc(C(=O)N[C@@H](CC(C)C)CN(C)C)cc(N(C)C)c1` [Compound 183], the inhibition constant (Ki) at Bcl-xL was in the range of 1000 to 5000 nM; at Bcl-2 it was 1 to 5 nM.

Take `COc1c(CN2O[C@@H](CO)[C@@H]([C@H](C)O)[C@H]2C(=O)N[C@H]2C[C@H]3C[C@@H]([C@@H]2C)C3(C)C)cccc1-c1cc(C(=O)N2CCN(C)C[C@@H]2Cc2ccccc2)cc(N(C)C)c1` [Compound 193]: the figures for the Ki on Bcl-xL and on Bcl-2 were 1000 to 5000 nM and 1 to 5 nM, respectively.

As for `COc1c(CN2O[C@@H](CO)[C@@H]([C@H](C)O)[C@H]2C(=O)N[C@H]2C[C@H]3C[C@@H]([C@@H]2C)C3(C)C)cccc1-c1cc2c(c(C(=O)N[C@H](CN(C)C)CC(C)(C)C)c1)OC(C)(C)C2` [Compound 196], the inhibitory constant (Ki) on Bcl-xL was below 1000 nM; on Bcl-2, below 1 nM.

With `COc1c(CN2O[C@@H](CO)[C@@H]([C@H](C)O)[C@H]2C(=O)N[C@H]2C[C@H]3C[C@@H]([C@@H]2C)C3(C)C)cccc1-c1cc2c(c(C(=O)N[C@H](CN(C)C)CC(C)(C)C)c1)OCO2` [Compound 202], the Ki at Bcl-xL was below 1000 nM; at Bcl-2, below 1 nM.

For the compound `COc1c(CN2O[C@@H](CO)[C@@H]([C@H](C)O)[C@H]2C(=O)N[C@H]2C[C@H]3C[C@@H]([C@@H]2C)C3(C)C)cccc1-c1cc(C(=O)N[C@@H](Cc2cccc(N)c2)CN(C)C)cc(N(C)C)c1` [Compound 206], the Ki is below 1000 nM on Bcl-xL and below 1 nM on Bcl-2.

`COc1c(CN2O[C@@H](CN)[C@@H]([C@H](C)O)[C@H]2C(=O)N[C@H]2C[C@H]3C[C@@H]([C@@H]2C)C3(C)C)cccc1-c1cc(C(=O)N[C@@H]2CCN(C)C2)cc(N(C)C)c1` [Compound 213]: the inhibition constant (Ki) at Bcl-xL is above 10000 nM; at Bcl-2 it was below 1 nM.

Consider `CCOc1c(CN2O[C@@H](CN)[C@@H]([C@H](C)O)[C@H]2C(=O)N[C@H]2C[C@H]3C[C@@H]([C@@H]2C)C3(C)C)cccc1-c1cc(C(=O)N[C@@H](Cc2ccccc2)CN(C)C)cc(N(C)C)c1` [Compound 218], for which the values for the inhibitory constant (Ki) on Bcl-xL and at Bcl-2 were 1000 to 5000 nM and below 1 nM, respectively.

Turning to `C[C@@H]1[C@@H](NC(=O)[C@@H]2[C@H]([C@H](C)O)[C@H](CO)ON2Cc2cccc(-c3cc(C(=O)N[C@@H](Cc4ccccc4)CN(C)C)cc(N(C)C)c3)c2OCCN2CCOCC2)C[C@H]2C[C@@H]1C2(C)C` [Compound 230], the Ki at Bcl-xL is below 1000 nM; at Bcl-2, below 1 nM.

Turning to `COc1c(CN2O[C@@H](CO)[C@@H]([C@H](C)O)[C@H]2C(=O)N[C@H]2C[C@H]3C[C@@H]([C@@H]2C)C3(C)C)cccc1-c1cc(C(=O)N[C@@H](Cc2ccccc2)CN(C)C)cc(N2CCOCC2)c1` [Compound 240], the inhibition constant Ki on Bcl-xL is 1000 to 5000 nM; on Bcl-2, below 1 nM.

In the case of `COc1c(CN2O[C@@H](CO)[C@@H]([C@H](C)O)[C@H]2C(=O)N[C@H]2C[C@H]3C[C@@H]([C@@H]2C)C3(C)C)cccc1-c1cc(C(=O)N2[C@H](CN(C)C)CC[C@@H]2c2ccccc2)cc(N(C)C)c1` [Compound 247], the inhibition constant Ki at Bcl-xL is below 1000 nM; on Bcl-2, below 1 nM.

In the case of `COc1c(CN2O[C@@H](CO)[C@@H]([C@H](C)O)[C@H]2C(=O)N[C@H]2C[C@H]3C[C@@H]([C@@H]2C)C3(C)C)cccc1-c1cc(C(=O)N[C@@H](Cc2cccs2)CN(C)C)cc(N(C)C)c1` [Compound 251], the Ki is below 1000 nM on Bcl-xL and below 1 nM at Bcl-2.

For the compound `COc1c(CN2O[C@@H](CN)[C@@H]([C@H](C)O)[C@H]2C(=O)N[C@H]2C[C@H]3C[C@@H]([C@@H]2C)C3(C)C)cccc1-c1cc(C(=O)N[C@@H](Cc2ccccn2)CN(C)C)cc(N(C)C)c1` [Compound 252], the Ki was 1000 to 5000 nM on Bcl-xL and below 1 nM on Bcl-2.

Consider `COc1c(CN2O[C@@H](CO)[C@@H]([C@H](C)O)[C@H]2C(=O)N[C@H]2C[C@H]3C[C@@H]([C@@H]2C)C3(C)C)cccc1-c1cc(Cl)cc(C(=O)N[C@@H](Cc2ccccc2)CN(C)C)c1` [Compound 255], for which the values for the inhibition constant (Ki) on Bcl-xL and on Bcl-2 were below 1000 nM and below 1 nM, respectively.

Regarding `COc1c(CN2O[C@@H](CO)[C@@H]([C@H](C)O)[C@H]2C(=O)N[C@H]2C[C@H]3C[C@@H]([C@@H]2C)C3(C)C)cccc1-c1cc2c(c(C(=O)N[C@H](CN(C)C)CC(C)(C)C)c1)OCC2` [Compound 256], the Ki at Bcl-xL was below 1000 nM; on Bcl-2 it was below 1 nM.

With `COc1c(CN2O[C@@H](CO)[C@@H]([C@H](C)O)[C@H]2C(=O)N[C@H]2C[C@H]3C[C@@H]([C@@H]2C)C3(C)C)cccc1-c1cc(C(=O)N[C@H](CN(C)C)CC(C)(C)C)c(Br)c(N(C)C)c1` [Compound 257], the inhibition constant (Ki) on Bcl-xL is below 1000 nM; at Bcl-2 it was below 1 nM.

For `CCOc1c(CN2O[C@@H](CO)[C@@H]([C@H](C)O)[C@H]2C(=O)N[C@H]2C[C@H]3C[C@@H]([C@@H]2C)C3(C)C)cccc1-c1cc(C(=O)N[C@H](CC(C)C)CN(C)C)cc(N(C)C)c1` [Compound 259], the Ki was 1000 to 5000 nM on Bcl-xL and below 1 nM on Bcl-2.

In the case of `COc1c(CN2O[C@@H](CO)[C@@H]([C@H](C)O)[C@H]2C(=O)N[C@H]2C[C@H]3C[C@@H]([C@@H]2C)C3(C)C)cccc1-c1cc(C(=O)N[C@@H](CC(C)C)C(N)=O)cc(N(C)C)c1` [Compound 260], the inhibition constant Ki on Bcl-xL was below 1000 nM; at Bcl-2, 1 to 5 nM.

On to `COc1c(CN2O[C@@H](CO)[C@@H]([C@H](C)O)[C@H]2C(=O)N[C@H]2C[C@H]3C[C@@H]([C@@H]2C)C3(C)C)cccc1-c1cc(NC(C)=O)cc(C(=O)N[C@@H](CC(C)C)CN(C)C)c1` [Compound 262], for which the inhibition constant Ki at Bcl-xL was in the range of 1000 to 5000 nM; on Bcl-2 it was 5 to 9 nM.

For `COc1c(CN2O[C@@H](CO)[C@@H]([C@H](C)O)[C@H]2C(=O)N[C@H]2C[C@H]3C[C@@H]([C@@H]2C)C3(C)C)cccc1-c1cc(C(=O)N[C@@H](CC(C)C)CN(C)C)cc([N+](=O)[O-])c1` [Compound 263], the Ki is below 1000 nM at Bcl-xL and below 1 nM on Bcl-2.

In the case of `COc1c(CN2O[C@@H](CO)[C@@H]([C@H](C)O)[C@H]2C(=O)N[C@H]2C[C@H]3C[C@@H]([C@@H]2C)C3(C)C)cccc1-c1cc(C(=O)N[C@@H](Cc2ccccc2)CN(C)C)cc([N+](=O)[O-])c1` [Compound 264], the inhibition constant Ki on Bcl-xL was below 1000 nM; on Bcl-2 it was below 1 nM.

Regarding `COc1c(CN2O[C@@H](CO)[C@@H]([C@H](C)O)[C@H]2C(=O)N[C@H]2C[C@H]3C[C@@H]([C@@H]2C)C3(C)C)cccc1-c1cc(C(=O)N[C@@H](CCc2ccccc2)CN(C)C)cc([N+](=O)[O-])c1` [Compound 265], the Ki on Bcl-xL was below 1000 nM; at Bcl-2, below 1 nM.

With `CCN(CC)c1cc(C(=O)N[C@@H](CC(C)C)CN(C)C)cc(-c2cccc(CN3O[C@@H](CO)[C@@H]([C@H](C)O)[C@H]3C(=O)N[C@H]3C[C@H]4C[C@@H]([C@@H]3C)C4(C)C)c2OC)c1` [Compound 267], the inhibitory constant (Ki) at Bcl-xL was 1000 to 5000 nM; on Bcl-2, below 1 nM.

Regarding `COc1c(CN2O[C@@H](CO)[C@@H]([C@H](C)O)[C@H]2C(=O)N[C@H]2C[C@H]3C[C@@H]([C@@H]2C)C3(C)C)cccc1-c1cc(C(=O)N[C@@H](CC(C)C)CN(C)C)cc(N2CCCCC2)c1` [Compound 268], the Ki at Bcl-xL lay in the range of 1000 to 5000 nM; at Bcl-2 it was 1 to 5 nM.

Turning to `CCNc1cc(C(=O)N[C@@H](CC(C)C)CN(C)C)cc(-c2cccc(CN3O[C@@H](CO)[C@@H]([C@H](C)O)[C@H]3C(=O)N[C@H]3C[C@H]4C[C@@H]([C@@H]3C)C4(C)C)c2OC)c1` [Compound 269], the Ki was below 1000 nM on Bcl-xL and below 1 nM on Bcl-2.

`COc1c(CN2O[C@@H](CO)[C@@H]([C@H](C)O)[C@H]2C(=O)N[C@H]2C[C@H]3C[C@@H]([C@@H]2C)C3(C)C)cccc1-c1cc(NCC(C)C)cc(C(=O)N[C@@H](CC(C)C)CN(C)C)c1` [Compound 270]: the inhibition constant (Ki) at Bcl-xL was 1000 to 5000 nM; on Bcl-2, 1 to 5 nM.

As for `COc1c(CN2O[C@@H](CO)[C@@H]([C@H](C)O)[C@H]2C(=O)N[C@H]2C[C@H]3C[C@@H]([C@@H]2C)C3(C)C)cccc1-c1cc(C(=O)N[C@@H](CC(C)C)CN(C)C)cc(N(C)CC(C)C)c1` [Compound 271], the values for the Ki on Bcl-xL and on Bcl-2 were below 1000 nM and below 1 nM, respectively.

For `COc1c(CN2O[C@@H](CN)[C@@H]([C@H](C)O)[C@H]2C(=O)N[C@H]2C[C@H]3C[C@@H]([C@@H]2C)C3(C)C)cccc1-c1cc(C(=O)N[C@H](CN(C)C)[C@H](O)c2ccccc2)cc(N(C)C)c1` [Compound 272], the Ki on Bcl-xL is 1000 to 5000 nM; on Bcl-2 it was below 1 nM.
